Series [1] in a line: Acute toxicity LD50 in rats, i.v. The settings on record: rat, in vivo, iv; Ratte (i.v.); read-out: LD₅₀.
Series [2] relates to Purkinje-Fasern aus Hundeherzen. Put plainly: Electrophysiological studies on Purkinje fibres from dog hearts (Vmax). The series is classed as cell-based, Hund. The note with it: for IC20: Purkinje-Fasern aus Hundeherzen, read-out: C20 Vmax; for Prematurity Faktor Vmax: Vorzeitigkeitsindex, activity on premature extrasystoles; for Rate-Faktor von Vmax: specifically stronger activity at higher frequencies. From the text:
Die antiarrhythmische Wirksamkeit der erfindungsgemäßen Verbindungen wurde sowohl anhand von elektrophysiologischen Studien an Purkinje-Fasern aus Hundeherzen sowie mit Hilfe von Ouabaininduzierten ventrikulären Tachykardien bei Hunden bestimmt. […]
Als zusätzliches Kriterium wurde der Vorzeitigkeitsindex (Prematurity-Faktor) bestimmt, der die erwünschte Wirksamkeit der erfindungsgemäßen Verbindungen bei vorzeitigen Extrasystolen charakterisiert.

Series [3] can be described thus: Acute toxicity LD50 in mice, i.v. The note with it: mouse, in vivo, iv; Maus (i.v.); read-out: LD₅₀.
The subject of series [4] is Meerschweinchen-Papillarmuskel. Put plainly: Effect on contraction force of the heart, guinea pig papillary muscle. The series is classed as cell-based. The settings on record: contraction force (negative inotropy), read-out: C20 CF. From the text: Die Wirkung auf die Kontraktionskraft des Herzens wurde am Meerschweinchen-Papillarmuskel untersucht. Hämodynamische Studien wurden bei gesunden, wie auch akut infarzierten Hunden durchgeführt.

Consider three compounds from patent EP0297435A2, “Aminopropanol derivatives of 3-(3'-hydroxyphenyl)-1-propanone, process for their preparation and medicines containing these compounds” (Helopharm W. Petrik GmbH & Co.KG., priority 1987, dated 1989).

Turning to `CCC(C)(C)NCC(O)COc1cc(CCC(=O)c2cc(OC)c(OC)c(OC)c2)ccc1OC.Cl` (centres unmarked) [Beispiel 28, 1-(3,4,5-Trimethoxyphenyl)-3-[3′-(2-hydroxy-3-tert.-pentylaminopropoxy)-4′-methoxyphenyl]-1-propanon-hydrochlorid], the LD50 in series [1] came out at 11 mg/kg; in series [3], 16 mg/kg. Besides, the IC20 in series [2] is 1.4 µM; in series [4], 6 µM. In addition, in series [2], the “Prematurity Faktor Vmax” value is reported as 1,01.

`COc1ccc(CCC(=O)c2cc(OC)c(OC)c(OC)c2)cc1OCC(O)CNC(C)(C)C.Cl` (centres unmarked) [Beispiel 31, 1-(3,4,5-Trimethoxyphenyl)-3-[3′-(2-hydroxy-3-tert.-butylaminopropoxy)-4′-methoxyphenyl]-1-propanon-hydrochlorid]: the LD50 in series [1] turned out to be 13 mg/kg; in series [3], 18 mg/kg. Also, the IC20 was determined as 1.4 µM in series [2] and 5 µM in series [4]. Also, the “Prematurity Faktor Vmax” value in series [2] is on record as 0,97. In addition, the “Rate-Faktor von Vmax” value in series [2] was 1,15.

For the compound `CCC(C)(C)NCC(O)COc1cc(CCC(=O)c2ccc(C)cc2)ccc1OC.Cl` (centres unmarked) [Beispiel 36, 1-(4-Methylphenyl)-3-[3′-(2-hydroxy-3-tert.-pentylaminopropoxy)-4′-methoxyphenyl]-1-propanon-hydrochlorid], in series [1], the LD50 is 10 mg/kg. Also, in series [2], the IC20 is 2.8 µM, the “Prematurity Faktor Vmax” value is reported as 0,99 and the “Rate-Faktor von Vmax” value is 1,41. Besides, the LD50 in series [3] stood at 18 mg/kg. The IC20 in series [4] was determined as 8 µM.
